Patent publication USRE38117E1, “Trioxane dimer compound having antiproliferative and antitumor activities” (Hauser, Inc., priority 1995, dated 2003)

Key:
Type in all cases: cell-based
SK-MEL-2 = experiment: NCI 60 cell line screen (SRB), Melanoma; settings: SK-MEL-2 (Melanoma)
MOLT-4 = experiment: NCI 60 cell line screen (SRB), Leukemia; settings: MOLT-4 (Leukemia)
RPMI-8226 = experiment: NCI 60 cell line screen (SRB), Leukemia; settings: RPMI-8226 (Leukemia)
HOP-92 = experiment: NCI 60 cell line screen (SRB), Non-Small Cell Lung Cancer; settings: HOP-92 (Non-Small Cell Lung Cancer)
MALME-3M = experiment: NCI 60 cell line screen (SRB), Melanoma; settings: MALME-3M (Melanoma)
SF-295 = experiment: NCI 60 cell line screen (SRB), CNS Cancer; settings: SF-295 (CNS Cancer)
A549/ATCC = experiment: NCI 60 cell line screen (SRB), Non-Small Cell Lung Cancer
MCF7/ADR-RES = experiment: NCI 60 cell line screen (SRB), Breast Cancer
HS 578T = experiment: NCI 60 cell line screen (SRB), Breast Cancer; settings: HS 578T (Breast Cancer)
OVCAR-8 = experiment: NCI 60 cell line screen (SRB), Ovarian Cancer; settings: OVCAR-8 (Ovarian Cancer)
NCI-H226 = experiment: NCI 60 cell line screen (SRB), Non-Small Cell Lung Cancer
SK-MEL-5 = experiment: NCI 60 cell line screen (SRB), Melanoma; settings: SK-MEL-5 (Melanoma)
SNB-75 = experiment: NCI 60 cell line screen (SRB), CNS Cancer; settings: SNB-75 (CNS Cancer)
U251 = experiment: NCI 60 cell line screen (SRB), CNS Cancer
MCF7 = experiment: NCI 60 cell line screen (SRB), Breast Cancer
UO-31 = experiment: NCI 60 cell line screen (SRB), Renal Cancer; settings: UO-31 (Renal Cancer)
COLO 205 = experiment: NCI 60 cell line screen (SRB), Colon Cancer; settings: COLO 205 (Colon Cancer)
BT-549 = experiment: NCI 60 cell line screen (SRB), Breast Cancer; settings: BT-549 (Breast Cancer)
SNB-19 = experiment: NCI 60 cell line screen (SRB), CNS Cancer; settings: SNB-19 (CNS Cancer)
HCT-116 = experiment: NCI 60 cell line screen (SRB), Colon Cancer; settings: HCT-116 (Colon Cancer)
NCI-H322M = experiment: NCI 60 cell line screen (SRB), Non-Small Cell Lung Cancer
OVCAR-5 = experiment: NCI 60 cell line screen (SRB), Ovarian Cancer; settings: OVCAR-5 (Ovarian Cancer)
786-0 = experiment: NCI 60 cell line screen (SRB), Renal Cancer; settings: 786-0 (Renal Cancer)
MDA-MB231/ATCC = experiment: NCI 60 cell line screen (SRB), Breast Cancer
HCC-2998 = experiment: NCI 60 cell line screen (SRB), Colon Cancer; settings: HCC-2998 (Colon Cancer)
60 cell line panel = experiment: NCI 60 cell line screen, values over the whole panel; settings: mean value over the cell line panel
UACC-62 = experiment: NCI 60 cell line screen (SRB), Melanoma; settings: UACC-62 (Melanoma)
NCI-H460 = experiment: NCI 60 cell line screen (SRB), Non-Small Cell Lung Cancer
EKVX = experiment: as above
OVCAR-3 = experiment: NCI 60 cell line screen (SRB), Ovarian Cancer; settings: OVCAR-3 (Ovarian Cancer)
M14 = experiment: NCI 60 cell line screen (SRB), Melanoma
SR = experiment: NCI 60 cell line screen (SRB), Leukemia

COC1OC2(C)CCC3CCCC(CCOCCC4CCCC5CCC6(C)OOC45C(OC)O6)C31OO2 (stereo not shown) [Compound 6, Trioxane Ether Dimer]
Log10GI50 (SK-MEL-2): −5.86 M | Log10LC50 (SK-MEL-2): >−4.00 M | Log10TGI (SK-MEL-2): −4.13 M | Log10GI50 (MOLT-4): −6.27 M | Log10LC50 (MOLT-4; listed as Ether Dimer): >−4.00 M | Log10TGI (MOLT-4; listed as Ether Dimer): >−4.00 M | Log10LC50 (MOLT-4; listed as either dimer): greater than −400. M | Log10TGI (MOLT-4; listed as ether dimer): 4.50 M | Log10GI50 (RPMI-8226): −6.69 M | Log10LC50 (RPMI-8226): >−4.00 M | Log10TGI (RPMI-8226): −5.47 M | Log10GI50 (HOP-92): −5.51 M | Log10LC50 (HOP-92): >−4.00 M | Log10TGI (HOP-92): −4.17 M | Log10GI50 (MALME-3M): −5.69 M | Log10LC50 (MALME-3M): >−4.00 M | Log10TGI (MALME-3M): >−4.00 M | Log10GI50 (SF-295): −5.61 M | Log10LC50 (SF-295): >−4.00 M | Log10TGI (SF-295): >−4.00 M | Log10GI50 (A549/ATCC): −5.79 M | Log10LC50 (A549/ATCC): >−4.00 M | Log10TGI (A549/ATCC): >−4.00 M | Log10GI50 (MCF7/ADR-RES): −6.13 M | Log10LC50 (MCF7/ADR-RES): >−4.00 M | Log10TGI (MCF7/ADR-RES): >−4.00 M | Log10LC50 (HS 578T): >−4.00 M | Log10TGI (HS 578T): >−4.00 M | Log10GI50 (OVCAR-8): −6.33 M | Log10LC50 (OVCAR-8): >−4.00 M | Log10TGI (OVCAR-8): >−4.00 M | Log10GI50 (NCI-H226): −5.36 M | Log10LC50 (NCI-H226): >−4.00 M | Log10TGI (NCI-H226): >−4.00 M | Log10GI50 (SK-MEL-5): −7.39 M | Log10LC50 (SK-MEL-5): −4.15 M | Log10TGI (SK-MEL-5): −4.90 M | Log10LC50 (SNB-75): >−4.00 M | Log10TGI (SNB-75): >−4.00 M | Log10GI50 (U251): −6.35 M | Log10LC50 (U251): >−4.00 M | Log10TGI (U251): >−4.00 M | Log10GI50 (MCF7): −6.37 M | Log10LC50 (MCF7): >−4.00 M | Log10TGI (MCF7): >−4.00 M | Log10GI50 (UO-31): −6.37 M | Log10LC50 (UO-31): −4.38 M | Log10GI50 (COLO 205): −6.85 M | Log10LC50 (COLO 205): −5.77 M | Log10TGI (COLO 205): −6.36 M | Log10GI50 (BT-549): −5.89 M | Log10LC50 (BT-549): >−4.00 M | Log10TGI (BT-549): >−4.00 M | Log10GI50 (SNB-19): −5.01 M | Log10LC50 (SNB-19): >−4.00 M | Log10TGI (SNB-19): >−4.00 M | Log10GI50 (HCT-116): −6.98 M | Log10LC50 (HCT-116): >−4.00 M | Log10TGI (HCT-116): >−4.00 M | Log10GI50 (NCI-H322M): >−4.00 M | Log10LC50 (NCI-H322M): >−4.00 M | Log10TGI (NCI-H322M): >−4.00 M | Log10GI50 (OVCAR-5): −6.39 M | Log10LC50 (OVCAR-5): >−4.00 M | Log10TGI (OVCAR-5): >−4.00 M | Log10GI50 (786-0): −5.65 M | Log10LC50 (786-0): >−4.00 M | Log10TGI (786-0): −4.53 M | Log10GI50 (MDA-MB231/ATCC): −5.25 M | Log10LC50 (MDA-MB231/ATCC): >−4.00 M | Log10TGI (MDA-MB231/ATCC): >−4.00 M | Log10GI50 (HCC-2998): −5.94 M | Log10LC50 (HCC-2998): −4.04 M | Log10TGI (HCC-2998): −4.90 M | Log10LC50 MG MID (60 cell line panel): −4.05 M | Log10TGI MG MID (60 cell line panel): −4.26 M | Log10GI50 (UACC-62): −6.46 M | Log10LC50 (UACC-62): >−4.00 M | Log10TGI (UACC-62): >−4.00 M | Log10GI50 (NCI-H460): −6.23 M | Log10LC50 (NCI-H460): >−4.00 M | Log10TGI (NCI-H460): >−4.00 M | Log10GI50 (EKVX): −5.56 M | Log10LC50 (EKVX): >−4.00 M | Log10TGI (EKVX): >−4.00 M | Log10GI50 (OVCAR-3): −6.10 M | Log10LC50 (OVCAR-3): >−4.00 M | Log10TGI (OVCAR-3): >−4.00 M | Log10GI50 (M14): −5.59 M | Log10LC50 (M14): >−4.00 M | Log10TGI (M14): >−4.00 M | Log10GI50 (SR): −7.19 M | Log10LC50 (SR): >−4.00 M | Log10TGI (SR): −5.93 M
